Laboratory results: patent publication US10292390B2, “Inhibition and dispersion of bacterial biofilms with 2-aminobenzimidazole derivatives” (WISCONSIN ALUMNI RESEARCH FOUNDATION, priority 2011, dated 2019)

Legend:
[1] = test system: LasR activity, P. aeruginosa PAO1/plasI-LVAgfp; assay: Las QS reporter assay (GFP fluorescence); type: cell-based, Pseudomonas aeruginosa; settings: for LasR activity: at 1-10× IC50 values for biofilm inhibition; for inhibition of Las-QS system: fluorescence dose curves, 12 and 24 h
Experimental: (§1) As introduced above, the role of QS in biofilm formation is well documented and therefore the abilities of 7 and 21 to inhibit QS in P. aeruginosa were evaluated. For this purpose, two wild-type P. aeruginosa QS reporter strains were prepared that contain the plasmids plasI-LVAgfp and prhII-LVAgfp. (see: The Examples) These strains report the activity of two intracellular QS receptors in P. aeruginosa (LasR and RhlR) by the production of green fluorescent protein (gfp), allowing for LasR and RhlR activities, and thus QS levels, to be quantified by fluorescence. […] Studies of related 2-ABI derivatives have shown that this class of molecules is bacterial cell permeable, allowing us to surmise that 7 and 21 could act on the Las and Rhl systems intracellularly. […] The precise targets of 7 and 21 that result in QS disruption are not yet known.
(§2) To evaluate the activity of compounds 7 and 21 on QS in P. aeruginosa, we prepared two P. aeruginosa QS reporter strains: PAO1/plasI-LVAgfp and PAO1/prhII-LVAgfp. These strains contain the reporter plasmids plasI-LVAgfp and prhII-LVAgfp, respectively, which contain the laslI or rhII promoter sequences fused to LVAgfp. Binding of activated LasR or RhlR to these promoters induces GFP production, which can be quantified by fluorescence and is proportional to the level of LasR or RhlR activation. LVAgfp is an unstable form of GFP with an estimated half-life of 40-60 min, which allows for a more real-time analysis of gene expression (wild-type GFP has a half-life of greater than 1 day). Further, this specific GFP is the variant GFPmut3b that has a shifted excitation maximum near 501 nm (wild-type GFP has an excitation maximum near 395 nm); emission maximum is similar to wild-type GFP at 511 nm (wild-type GFP has emission maximum near 508 nm). Utilizing this GFP variant is key to detection over native fluorescent pigments that are produced in P. aeruginosa and excite near 400 nm and emit near 500 nm. Preparation and analysis of the PAO1/plasI-LVAgfp and PAO1/prhII-LVAgfp reporters are outlined below.
(§3) Compounds 7 and 21 were evaluated for their ability to modulate the Las and Rhl systems using the P. aeruginosa PAO1/plasI-LVAgfp and PAO1/prhII-LVAgfp reporters. We used the same exact setup as the static biofilm assay in 96-well microtiter plates for P. aeruginosa with the exception that freezer stocks were streaked on LB/agar with 300 μg/mL Carb. Microtiter plates were prepared similar to dose-response analysis such that final well concentrations upon inoculum addition ranged from 10^x μM where x=3.5, 3, 2.5, 2, 1.5, 1, 0, −1, or −2. Measurements of FL500/540 and OD600 were made at 12 and 24 h, and after 24 h the samples were evaluated for biofilm formation using the CV procedure. […]

[2] = test system: RhlR activity, P. aeruginosa PAO1/prhII-LVAgfp; assay: Rhl QS reporter assay (GFP fluorescence); type: cell-based, Pseudomonas aeruginosa; settings: for RhlR activity: at 1-10× IC50 values for biofilm inhibition; for inhibition of Rhl-QS system: fluorescence dose curves, 12 and 24 h
Experimental: as §1, §2, §3

[3] = test system: preformed P. aeruginosa biofilms; assay: biofilm dispersion assay (preformed 24 h-old biofilms, crystal violet); type: cell-based, Pseudomonas aeruginosa; settings: for dispersion of preformed biofilm / DC50: 24 h-old biofilm, additional 24 h with compound; for effect on final OD600 measurement during dispersion: 48 h; for DC50: Pseudomonas aeruginosa, read-out: half maximal dispersion DC50
Experimental: Compounds capable of not only inhibiting biofilm growth, but also dispersing preformed biofilms, are of particular value for a range of clinical and other applications. The ability of compounds 7 and 21 to disperse 24 h-old P. aeruginosa biofilms was tested using the crystal violet staining assay (FIG. 1B). Biofilms were allowed to develop in the absence of compound for 24 h, after which non-biofilm material was removed by washing with buffer and fresh media with compound was added. Biofilm was quantified after an additional 24 h, and the amount of dispersed biofilm was determined via comparison of the amount of biofilm at 48 h in the presence of compound versus the amount of biofilm at 24 h in the absence of compound. 2-ABIs 7 and 21 were capable of strongly dispersing P. aeruginosa biofilms (˜80%), with half maximal dispersion DC50 values of 84 μM and 92 μM, respectively (FIG. 1B).
Compounds 7 and 21 were evaluated for their ability to disperse preformed P. aeruginosa biofilms. For biofilm dispersion assessment, the static CV biofilm assay described above was modified in order to introduce compound to preformed biofilm for an additional incubation period. Solvent evaporation delivery of compound was not possible in this format; thus, stock solutions of compounds 7 and 21 were prepared in 95:5 M9+:LB media. Stocks of 7 and 21 were prepared at 3.16 mM and 1 mM, respectively (21 was insoluble at 3.16 mM). These stocks were diluted in series to obtain final concentrations as follows: 10^x μM where x=3.5 (7 only), 3, 2.5, 2, 1.5 (21 only), 1, 0, −1, or −2. Biofilms were allowed to form in microtiter plates in the absence of compound for 24 h, after which non-biofilm material was removed by dumping and washing as normal with sterile PBS. After the second washing, 200 μL of fresh 95:5 M9+:LB media containing compound at various concentrations was added to the wells, and the plates were incubated at 37° C. for an additional 24 h. One set of wells was left empty in order to assess the amount of biofilm present after the first 24 h incubation, while another set of wells was given media without compound to assess the amount of biofilm at 48 h. […] After the second 24 h incubation, non-biofilm material was removed by dumping and washing 4× with PBS (the additional washing at 48 h was found necessary to completely remove detached Int biofilm that had settled over the SA biofilm; data not shown). Biofilm was fixed and quantified with CV as described above. The amount of dispersed biofilm was determined via comparison of the amount of biofilm at 48 h in the presence of compound versus the amount of biofilm in the “no compound” positive control at 24 h. A higher degree of error was often observed with this assay format due to the additional incubation and washing steps; thus, all compounds were tested in replicates of 6 wells.
DC50 values for biofilm dispersion by 7 and 21 were calculated using a sigmoidal curve fit (three parameters) and are reported with a 95% Cl.

Gram-positive bacteria = settings: WO 2010/144686 (7); ref. 34 (18); cited from earlier work
P. aeruginosa growth = assay: bacterial growth over time (OD600); type: cell-based, Pseudomonas aeruginosa; settings: prior to 12 h; at concentrations as low as 10 μM; diminish by 12 h
Experimental: The effects of compounds 7 and 21 on P. aeruginosa growth were evaluated by monitoring the OD600 as a function of time. Microtiter plates were prepared similar to biofilm dose-response analyses such that final well concentrations upon inoculum addition ranged from 10^x μM where x=3.5, 3, 2.5, 2, 1.5, 1, 0, −1, or −2. Compounds 7 and 21 were tested in replicates of 3 wells, and the OD600 was measured every 1-2 h for 24 h.

## Nc1nc2ccccc2[nH]1 [Compound 7, 2-aminobenzimidazole]
[1]
  LasR activity: significant reduction
  inhibition of Las-QS system: able to inhibit
[2]
  RhlR activity: significant reduction
  inhibition of Rhl-QS system: able to inhibit
[3]
  dispersion of preformed biofilm: ~80%
  effect on final OD600 measurement during dispersion: without significantly affecting the final OD600 measurement
  DC50: 84 µM
Gram-positive bacteria
  biofilm inhibition in Gram-positive bacteria as reported: no inhibition of biofilm formation

## Cc1cc2nc(N)[nH]c2cc1C [Compound 21, 5,6-Dimethyl-2-aminobenzimidazole]
[1]
  LasR activity: significant reduction
  inhibition of Las-QS system: able to inhibit
[2]
  RhlR activity: significant reduction
  inhibition of Rhl-QS system: able to inhibit
P. aeruginosa growth
  growth inhibition versus positive control: greater than 20%
[3]
  dispersion of preformed biofilm: ~80%
  effect on final OD600 measurement during dispersion: without significantly affecting the final OD600 measurement
  DC50: 92 µM
